Our source for the Km and IC50 values is publication PMC10434272, “Overexpression of Eimeria tenella Rhoptry Kinase 2 Induces Early Production of Schizonts” (Microbiology Spectrum, 2023).

For experiment [1], the target named is T1, EtROP2 (rhoptry kinase 2) (Eimeria tenella, UniProt U6KH66). On the set-up: gene ETH_00027700.
In experiment [2] the target is T1, EtROP2 (rhoptry kinase 2). The experiment can be described thus: ADP-Glo kinase assay with p120-TLTR peptide substrate, […] ATP. The class given is biochemical. Details: gene ETH_00027700; EtROP2-GST, wild type, full-length, from Met1 to Glu671, produced in Sf9 cells.

T1 sequence (U6KH66 entry or part of it): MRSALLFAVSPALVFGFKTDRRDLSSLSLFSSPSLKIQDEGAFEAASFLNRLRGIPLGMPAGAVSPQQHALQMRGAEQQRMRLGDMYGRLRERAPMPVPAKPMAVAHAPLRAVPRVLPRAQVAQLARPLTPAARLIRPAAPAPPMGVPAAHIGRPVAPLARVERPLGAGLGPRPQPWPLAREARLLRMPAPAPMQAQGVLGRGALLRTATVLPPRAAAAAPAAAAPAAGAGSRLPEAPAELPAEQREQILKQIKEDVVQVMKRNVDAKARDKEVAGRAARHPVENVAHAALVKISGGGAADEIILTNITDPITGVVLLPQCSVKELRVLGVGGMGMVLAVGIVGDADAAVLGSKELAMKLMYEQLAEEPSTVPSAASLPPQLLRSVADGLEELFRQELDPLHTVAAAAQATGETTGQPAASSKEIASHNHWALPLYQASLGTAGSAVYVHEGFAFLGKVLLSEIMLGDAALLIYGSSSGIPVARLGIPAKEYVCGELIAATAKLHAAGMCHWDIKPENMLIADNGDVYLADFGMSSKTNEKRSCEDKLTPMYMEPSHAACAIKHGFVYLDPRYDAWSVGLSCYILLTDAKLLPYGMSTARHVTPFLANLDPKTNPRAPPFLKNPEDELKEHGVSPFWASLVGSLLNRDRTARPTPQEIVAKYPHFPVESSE

With `Nc1ncnc2c1ncn2[C@@H]1O[C@H](COP(=O)(O)OP(=O)(O)OP(=O)(O)O)[C@@H](O)[C@H]1O` [ATP], in experiment [1], the Km was roughly 7.52 µM.

Molecule `CN[C@@H]1C[C@H]2O[C@@](C)([C@@H]1OC)n1c3ccccc3c3c4c(c5c6ccccc6n2c5c31)C(=O)NC4` [STS, staurosporine] registered an IC50 in experiment [2] of 0.291 µM. That is a sub-micromolar value.
